Data on 4 compounds can be found in patent US20250090729A1, “Methods and Products to Detect, Minimize and Treat TRAP-Related Tissue Reactions and Tissue Injury Associated With Medical Devices” (priority 2022, published 2025).

Entries after “also recorded” stand apart in the source; their conditions may differ.

Data set [1] relates to human neutrophils. Nature of the data set: In vitro TRAP formation by human blood neutrophils (PMNs) cultured with test agents. It counts as cell-based. Particulars: for TRAP formation in human neutrophils: FIG. 12, human blood neutrophils cultured with agent; for TRAP formation at higher dilution than 1/5: PMNs; for TRAP formation at 1/5 dilution: PMNs of 3 donors, 4 hr timeline, vs negative control. Here is the method: From left to right and top to bottom (A)-(F), media only (A) and PMA (B), a known inducer of TRAPS in human neutrophils, present positive control.
PMA=phorbol myristate acetate; Insulin is Humalog (Lilly); LPS is a bacterial endotoxin (known inducers of TRAPs.
Green color (light color in grayscale) indicates the existence of TRAPs. In each slide set, the upper left slide is the control with media only. The upper right slide is Humalog insulin in media at 1/5 dilution (0.6 mg m-cresol/ml, with 0.6 mg/ml of insulin), PMA concentrations are in ng/ml and the lower right slide is m-cresol at 1/5 dilution (0.6 mg/ml of m-cresol). In this study, the media was RPMI 1640 (phenol free).
In these examples, human blood neutrophils were placed in a culture dish+/−sensors in vitro. […] Brightfield refers to the use of non-fluorescent white light (78a). […] In FIG. 79, neutrophils were added to tissue culture dishes that contained a sensor (commercial type #1) to see if the sensor could directly trigger neutrophil death and TRAP release which we detect with fluorescent dyes like sytox green. FIG. 79a-c had no neutrophils added to the sensors. In FIG. 79d-f neutrophils were added. The sytox green binds to DNA, and fluoresces green in color photo, or white in black and white photos. […] “Merged” refers to photos in which the non-fluorescent (brightfield) and fluorescent photos are merged into a single photo FIG. 79c.

Data set [2] deals with porcine skin. Nature of the data set: In vivo TRAP formation at infusion/injection sites in swine skin (H&E histology). To be noted: infused continuously over a 5- to 7-day period.
Text: The presence of the purple web appearance is indicated by the black arrows.
White area in the center of the image is the previous location of the injection port.

Take `CNc1ccc2oc(C[C@H]3O[C@@]4(CC[C@H]3C)O[C@H]([C@H](C)C(=O)c3ccc[nH]3)[C@H](C)C[C@H]4C)nc2c1C(=O)O` [A23187, calcimycin]: in data set [1] (FIG. 77 d-f, human neutrophils in culture dish), the “TRAPs in neutrophils, positive control” value is “triggers TRAPs”.

With `CCCCCCCCCCCCCC(=O)O[C@@H]1[C@@H](C)[C@@]2(O)[C@@H](C=C(CO)C[C@]3(O)C(=O)C(C)=C[C@@H]23)[C@@H]2C(C)(C)[C@]12OC(C)=O` [PMA, phorbol myristate acetate], the “TRAPs at 30 minutes” value in data set [1] (FIG. 60B, human PMNs, RPMI 1640) is reported as “presence of TRAPs”. Besides, the “TRAPs at 60 minutes” value in data set [1] (FIG. 60C, Humalog insulin 1/5 dilution) is “significant TRAPs”. Further, the “TRAP formation in PMNs of 3 donors” value in data set [1] (dilution not specified, positive controls and insulin fibrils lacking PP) is on record as “trigger TRAP formation; also recorded: triggered TRAPs”. In addition, the “time after exposure until TRAPs are triggered” value in data set [1] (human PMNs, commercial insulin and m-cresol at 1/5 dilution) is not above 60 min.

In the case of `Cc1cccc(O)c1` [m-cresol], the “TRAPS in swine tissue” value in data set [2] is “presence of TRAPS”. Also, in data set [1], the “TRAP formation in human neutrophils” value was “trigger TRAP formation”, the “TRAP formation at higher dilution than 1/5” value is recorded as “weak to no TRAP formation” and the “TRAP formation at 1/5 dilution” value is listed as “strong”. The “TRAPs from 120 minutes to 150 minutes” value in data set [1] (FIGS. 60E-60F, 1/5 dilution (0.6 mg/ml m-cresol)) was “significant increase in the presence of TRAPs”. In addition, the “number and size of TRAPs from 180 minutes to 240 minutes” value in data set [1] (FIGS. 60G-60I, 1/5 dilution) is given as “remained relatively stable”.

Turning to `Oc1ccccc1` [phenol], in data set [1], the “TRAP formation in human neutrophils” value is “trigger TRAP formation”, the “TRAP formation at higher dilution than 1/5” value is “weak to no TRAP formation” and the “TRAP formation at 1/5 dilution” value was “triggered TRAP formation”. The “TRAP formation at 1/5 dilution” value in data set [1] (listed as Phenol) is recorded as “strong traps”.
